The source of these data is patent US9505735B2, “Compounds for treating infectious diseases” (Whitehead Institute for Biomedical Research, priority 2012, dated 2016).

The test system of data set [1] is mammalian cells (293T, mouse embryo fibroblasts). Kind of data set: Mammalian cell toxicity testing (Cell Titer-Glo). Format: cell-based, human. The conditions noted are these: 20 μM, 48 hours. On the procedure:
(B) Anti-fungal susceptibility testing for an evolutionarily diverse group of fungi treated with gepinacin. For A. terreus the MIC50 and MIC80 are plotted. (C) Anti-fungal susceptibility testing for wild type C. albicans and strains resistant to the three major classes of anti-fungals treated with gepinacin. (D) Mammalian cell toxicity testing for proliferating human cells in culture (293T) or quiescent cells (mouse embryo fibroblasts). Cells were treated with gepinacin (20 μM) for 48 hours after which relative viable cell number was measured by standard luciferase assay (Cell Titer-Glo®, Promega).
(ATP-based viability assays read luminescence as a measure of living cells.)

The test system of the next data set is Candida albicans. Kind of data set: Antifungal susceptibility testing, wild type and drug-resistant strains. Format: cell-based. On the procedure: Anti-fungal susceptibility testing of a fluconazole-resistant C. albicans strain under standard conditions. Yeast were incubated at 30° C. for 24 hours with serial dilutions of the indicated compounds. Growth was monitored by OD600 and is expressed as fraction of the growth observed in the absence of compound.
Archives of all strains were maintained in 25% glycerol at −80° C. Standard S. cerevisiae lab strains W303, BY4741, BY4742 and BY4743 were used for experiments. The C. albicans wild type strain in FIG. 1 was CaI4, a standard laboratory strain (Fonzi, et al. (1993) Genetics 134, 717-728). […]
Sensitivity to gepinacin was determined in 96-well, flat bottom microtiter plates using a modification of the NCCLS broth microdilution protocol CLS M27-A3 and RPMI as culture medium. Fungi were inoculated at ˜10^3 cells per ml and incubated for 48 hours at 37° C. after which plates were sealed, shaken and the optical density read at 600 nm (OD600) on a Tecan Safire 2 plate reader. […] Results are expressed as fraction of growth in the absence of compound and the mean and standard deviation are plotted. […] Plates were then visually scored as specified by CLSI document M38-A2 to determine the MIC50 and MIC80.

A further data set concerns S. cerevisiae. In words: Antifungal susceptibility testing. Format: cell-based. On the procedure: (§1) Sensitivity to gepinacin was determined in 96-well, flat bottom microtiter plates using a modification of the NCCLS broth microdilution protocol CLS M27-A3 and RPMI as culture medium. Fungi were inoculated at ˜10^3 cells per ml and incubated for 48 hours at 37° C. after which plates were sealed, shaken and the optical density read at 600 nm (OD600) on a Tecan Safire 2 plate reader. All samples were run in duplicate or triplicate and assays were repeated at least once. Results are expressed as fraction of growth in the absence of compound and the mean and standard deviation are plotted. For the mold A. terreus, inoculum was 10^4 cells per ml and plates were incubated at 35° C. for 48 hours in the dark. Plates were then visually scored as specified by CLSI document M38-A2 to determine the MIC50 and MIC80.

Another data set relates to Candida glabrata. Kind of data set: Antifungal susceptibility testing. Format: cell-based. How it is done:
as §1

The subject of data set [2] is RAW264.7 macrophages co-cultured with treated C. albicans. In words: Macrophage stimulation and TNFα measurement (ELISA). Format: cell-based, mouse. The conditions noted are these: 2 hours co-culture. How it is done:
Cultures of C. albicans Sc5314 cells were drug treated as described for β-glucan staining. After overnight incubation, cultures were washed extensively, counted, and added to cultures of the mouse macrophage cell line RAW264.7 at a macrophage:yeast ratio of 1:2.5 in the continued presence of drug. After 2 hours supernatants were harvested and TNFα concentration measured by ELISA using a kit according to manufacturer's instructions (DY410, R&D Systems).
On the technique in general: ELISA stands for enzyme-linked immunosorbent assay.

The subject of data set [3] is S. cerevisiae strains deleted for IRE1 or HAC1. Kind of data set: Antifungal susceptibility testing of UPR-deficient strains. Format: cell-based. The settings on record: 48 hour. How it is done:
(A) Immunoblots of lysates prepared from S. cerevisiae treated with gepinacin showing GPI-anchor-selective impairment of protein maturation. The unprocessed (u), precursor (p), and mature (m) forms of the reporter proteins are indicated. The identity of the tagged reporter proteins (top of panel) and the antibodies used for their detection (bottom of panel) are also indicated. Treatment conditions are DMSO (0.05%), gepinacin (GPN, 10 μM) or tunicamycin (Tun, 10 μM). The same lysate was used for both blots. […] GFP expression was monitored by flow cytometry. (C) Anti-fungal susceptibility testing of strains deleted for IRE1 (activator of the UPR) or HAC1 (effector of the UPR) showing their increased sensitivity to gepinacin.
Anti-fungal susceptibility testing of strains bearing deletion of IRE1 (activator of the UPR) or HAC1 (effector of the UPR) using either […] (A) or fluconazole (B). Growth was measured by OD600 after 48 hour exposure to serial dilutions of the compounds as indicated. Results are expressed as a fraction of the OD600 measured in the absence of gepinacin. The mean and standard deviation of triplicate determinations are shown.

For a further data set, the system named is Emp24-GFP. Kind of data set: Emp24-GFP distribution (microscopy). Format: cell-based, S. cerevisiae. The conditions noted are these: 5 μM, overnight. How it is done: (A) Anti-fungal susceptibility testing of gepinacin using suppressor strains 20-1 and 20-2. (B) The sequence of EMP24 in S. cerevisiae is shown with the location of mutations found by whole genome sequencing in the suppressor strains 20-1 and 20-2 indicated. The sequence in FIG. 4B corresponds to SEQ ID NO: 1. (C) Micrographs showing the redistribution of Emp24-GFP after overnight incubation with 5 μM gepinacin. Green fluorescence and DIC images are merged in the lower panels. Scale bar; 5 μm.
To determine if gepinacin does indeed alter trafficking and change Emp24 distribution yeast in which GFP was fused in frame to the 3′ end of genomic EMP24 were examined.

Each structure is given as a SMILES string.

Turning to `COc1ccc(NC(=O)COc2cccc(OCC(C)C)c2)cc1` [gepinacin], the “cytotoxicity for mammalian cells” value in data set [1] was “Lack of cytotoxicity”. Besides, the growth inhibition entry with Candida albicans, with S. cerevisiae and in the data set with Candida glabrata was “inhibited the growth” in each case. Moreover, in the data set with Candida albicans (fluconazole-, amphotericin B-, caspofungin-resistant strains), the “growth inhibition of isolates resistant to the three major classes of antifungals” value is recorded as “inhibited the growth of multiple isolates”. In addition, the “TNFα secretion by macrophages” value in data set [2] is given as “more than doubled”. Also, in data set [3], the “change of toxicity by deletion of HAC1 or IRE1” value is “greatly increased the toxicity”. For the same compound, in the data set with Emp24-GFP, the Emp24-GFP localisation result was “dramatically re-localized into large, bright dotlike structures”.
